The test system of one assay is MCF 7 cells. The experiment in a line: clonogenic assay. It is filed as cell-based, human. Conditions: MCF 7, FIG. 4(C). As to the method:
In this assay, the effectiveness of specific agents on cell survival and proliferation can be measured in a functional sense. After treatment, surviving cells are re-plated to determine whether the surviving cells are still capable of proliferation. Therefore, this if a more direct measure of cell survival and function.
4×10^5 cells were plated in 25 cm^2 flasks. After overnight culture, cells are treated with compounds for specified times and concentrations. After drug treatment, cells are trypsinized and equal numbers of treated and control cells are plated in triplicate in 60-mm dishes at a density of 500 cells/dish in medium without drugs. Clones are stained and counted after 7-10 days
MCF 7 cells were treated with vehicle, C31 at increasing doses, or Riv7d.

Assay [1] deals with OVCAR3 human ovarian cancer xenograft. The experiment in a line: tumor xenograft size, OVCAR3. Format: in vivo, Athymic Nude mice. Particulars: Study 1129063207, OVCAR-3, oral b.i.d. 11 days, 50 mg/kg. As to the method:
Xenograft studies were performed using various mmFAS inhibitors disclosed herein. Human cancer xenograft studies are known in the art. (See Pizer et al., Cancer Res. 56:1189-1193, 1996; Pizer et al., Cancer Res. 60: 213-218, 2000; Testa et al., Oncogene 24: 7455-7464, 2005).
In particular, C31 mouse efficacy studies were conducted in order to evaluate anti-neoplastic activity of C31 in vivo. Athymic Nude mice were implanted with HCT116 human colon, SKOV3 human ovarian or OVCAR3 human ovarian cancer cell lines and were treated when the grown tumor xenografts reached at least 150 to 200 mm^3.^1 ^1 Compounds were solubilized in TEP (80% polyethylene glycol (PEG) 400, 10% ethanol, 10% tween-80) in a volume of 50 μL.

In another assay the test system is mitochondrial FAS. The experiment in a line: 14C-malonate incorporation into mitochondrial fatty acids, mitochondria isolated from rat liver. Format: biochemical. Particulars: FIG. 3. How it is done:
Mammalian mitochondrial FAS activity may be determined in a variety of ways. For example, [14C]malonate may be added to isolated mitochondria, fatty acids are extracted, and then radioactivity is tested. (See Zhang et al., J. Bio. Chem. 278(41): 40067-40074, 2003; Mikolajczyk, J. and Brody, S., Eur. J. Biochem. 187: 431-437, 1990). The mitochondria are purified using methods known in the art. (See Qiagen's Qproteome Mitochondria Isolation Kit; Methods in Enzymology, Vol. 10, Chapter 11, 1967). To test the inhibition of mmFAS activity, a test compound is added to the reaction mixture. Therefore, a test compound may be screened according the methods described herein as follows: (i) isolating mitochondria; (ii) incubating mitochondria with [14C]malonate with and without a test compound; and (iii) determining the quantity of lipids and/or fatty acids produced. By comparing the amount of product in the presence of the test compound to the amount in its absence, the degree of inhibition can be determined.
Mitochondria from MCF7 cells were prepared following manufacturer's protocol (Mitochondria Isolation Kit, Sigma, Saint Louis, Mo.). Rat liver mitochondria were isolated by homogenization with a tissue homogenizer in H-medium (220 mM mannitol, 70 mM sucrose, 2 mM HEPES, and 0.5 g/L of fatty acid free bovine serum albumin, pH 7.4). The homogenate was centrifuged at 1100 g for 3 min and washed twice with H-medium. The supernatants were pooled and centrifuged at 6800 g for 15 min. The pellet was then rinsed again and centrifuged at 3000 g for 3 min. The mitochondria supernatants were saved. The sediments were resuspended in H-medium and centrifuged at 3000 g for 3 min. The mitochondria supernatants were combined and centrifuged at 20,000 g for 15 min. The resulting mitochondria pellet were rinsed and centrifuged again at 20,000 g for 20 min.
Isolated mitochondria (100-200 μg) were mixed with 50 mM TES-KOH (pH 7.2), 10 mM MgCl2, 0.3 M sorbitol, 0.1% BSA, 1 mM each of ATP, ADP, NADH, NADPH, CoA, DTT and 1 μCi of [2-^14C]malonic acid (50 mCi/mmol) in a total volume of 200 μl. The reaction was performed for 30 min at room temperature. C31, Riv7d or vehicle were added at the beginning of this reaction. At the end of 30 minutes, the mitochondria pellet was separated from supernatant by centrifugation at 14000 rpm for 5 min. After washing with 500 μl of 50 mM TES-KOH (pH 7.2) and 0.3 M sorbitol, the mitochondria were incubated in 200 μl of H2O and 20 μl of 10 M KOH for 15 min at 65° C. Then the samples were added with 40 μl of 5 M H2SO4 and 20 μl of 1 mM palmitic acid (in 1 M acetic acid in isopropanol). The ^14C labeled fatty acids were twice extracted with hexane and sent to scintillation counting after drying.

The test system of assay [2] is SKOV3 human ovarian cancer cells. In words: JC-1 staining, mitochondrial membrane potential in SKOV3 cells. It is filed as cell-based. Particulars: SKOV3, drug in DMSO applied 30 min prior to staining. An excerpt:
JC-1 staining is an indicator of mitochondrial membrane potential; with this assay, mitochondria within cells stained with this fluorescent dye emit a wavelength in the red spectrum when mitochondrial membrane potential is intact. When mitochondria are depolarized, the wavelength of the spectrum emitted changes to green. Therefore, the ratio of red/green fluorescence will give an indication of the intactness of the membrane potential of mitochondria, and thus mitochondrial function.
The left panels show granular red-staining indicating mitochondria with intact membrane potential is brightest in control, and decreases with increasing concentrations of C31. Conversely, the right panels show the diffuse cytoplasmic green-staining which indicates mitochondrial depolarization, is dimmest in control and brightest at the highest concentration of C31 tested. Drug was solubilized in DMSO and applied for 30 min prior to staining.

As for `CCCCCCCCC1(C)SC(=O)C=C1OCC(=O)Nc1ccc(Cl)cc1` (centres unmarked) [Compound C31], in the assay on MCF 7 cells, the “viability in clonogenic assay” value is given as “dose-dependent decrease in viability”. In addition, the “Average Tumor Size Endpoint (% Change)” value in assay [1] was −59 % Change. Further, the “IC50, inhibition of mitochondrial FAS (14C-malonate incorporation)” value in the assay on mitochondrial FAS (isolated mitochondria) is “less than 4 μg per mL”. For the same compound, in the assay with mitochondrial FAS (mitochondria isolated from rat liver), the “effect on 14C-malonate incorporation into mitochondrial fatty acids” value is reported as “dose-dependent inhibitory effect”. Besides, in assay [2], the “mitochondrial depolarization (JC-1 staining)” value was “depolarization of the mitochondria in the SKOV3 human ovarian cancer cells which is dose-dependent”.

For the origin of these results see US20140243401A1, “METHODS OF SCREENING COMPOUNDS THAT ARE CYTOTOXIC TO TUMOR CELLS AND METHODS OF TREATING TUMOR CELLS USING SUCH COMPOUND” (The Johns Hopkins University, priority 2010, published 2014).
